Assay results reported in ChEMBL document CHEMBL3421550, “Diphenylpyrazoles as replication protein a inhibitors” (ACS Med Chem Lett, 2015).

Key:
[1] = target: T1, Replication protein A 70 kDa DNA-binding subunit (Homo sapiens, UniProt P27694)
Description: Binding affinity to RPA70N protein (unknown origin) incubated for 1 hr using FITC-ATRIP/FITC-ATRIP2 peptide probe by fluorescence polarization anisotropy assay

[2] = target: T1, Replication protein A 70 kDa DNA-binding subunit; conditions: at 500 µM
Description: Displacement of FITC-ATRIP/FITC-ATRIP2 peptide probe from RPA70N protein (unknown origin) at 500 uM incubated for 1 hr by fluorescence polarization anisotropy assay

[3] = Intrinsic permeability in human Caco2 cells; format: ADME, cell-based; conditions: Caco-2, read-out: permeability
[4] = target: T1, Replication protein A 70 kDa DNA-binding subunit; experiment: Binding affinity to RPA70N protein (unknown origin) by HSQC NMR-based titration method

T1 sequence (P27694 whole entry): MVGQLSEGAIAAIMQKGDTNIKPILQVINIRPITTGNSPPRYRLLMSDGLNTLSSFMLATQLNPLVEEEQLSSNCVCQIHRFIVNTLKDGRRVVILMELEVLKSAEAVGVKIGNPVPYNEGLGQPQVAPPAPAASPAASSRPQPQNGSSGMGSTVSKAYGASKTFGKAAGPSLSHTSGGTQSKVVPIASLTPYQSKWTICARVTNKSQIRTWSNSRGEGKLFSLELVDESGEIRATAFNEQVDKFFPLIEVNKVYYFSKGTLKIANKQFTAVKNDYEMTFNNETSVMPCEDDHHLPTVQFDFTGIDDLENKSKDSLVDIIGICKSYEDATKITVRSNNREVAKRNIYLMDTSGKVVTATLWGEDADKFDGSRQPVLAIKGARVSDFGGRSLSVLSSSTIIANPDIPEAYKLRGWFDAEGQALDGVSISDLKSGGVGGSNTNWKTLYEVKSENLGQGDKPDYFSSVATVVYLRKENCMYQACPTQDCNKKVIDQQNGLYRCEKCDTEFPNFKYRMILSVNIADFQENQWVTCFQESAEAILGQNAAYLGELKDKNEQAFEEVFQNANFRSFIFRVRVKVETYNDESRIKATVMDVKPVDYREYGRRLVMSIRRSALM

O=C(O)c1cc(-c2ccc(CNC(=S)c3ccc(Br)cc3)cc2)n(-c2ccc(Cl)c(Cl)c2)n1
Kd [1]: 15 µM

COc1ccc(-c2cc(C(=O)O)nn2-c2cccc(Br)c2)cc1
Kd [1]: 140 µM

CC(=O)N(Cc1ccc(-c2ccc(C(=O)O)o2)cc1)Cc1cccc(-c2cc(C(=O)O)nn2-c2ccc(Cl)c(Cl)c2)c1
Kd [1]: 8.2 µM

O=C(O)c1cc(-c2ccc(C(=S)NCc3ccc(-c4ccc(C(=O)O)o4)cc3Cl)cc2)n(-c2ccc(Cl)c(Cl)c2)n1
Kd [1]: 0.48 µM

Cc1ccc(-c2cc(C(=O)O)nn2-c2ccc(Cl)c(Cl)c2)cc1
Kd [1]: 72 µM

O=C(O)c1cc(-c2ccc(CNS(=O)(=O)c3ccc(OC(F)(F)F)cc3)cc2)n(-c2ccc(Cl)c(Cl)c2)n1
Kd [1]: 56 µM

O=C(O)c1cc(-c2ccc(C(=S)NCc3cccc(-c4ccc(C(=O)O)o4)c3)cc2)n(-c2ccc(Cl)c(Cl)c2)n1
Kd [1]: 2.5 µM

COc1ccc(-c2cc(C(=O)O)nn2-c2ccc(Cl)cc2)cc1
inhibition [2]: 19%
Kd [1]: > 500 µM

COc1ccc(-c2cc(C(=O)O)nn2C2CCCCC2)cc1
inhibition [2]: 9%
Kd [1]: > 500 µM

O=C(O)c1cc(-c2ccc(CNC(=S)c3ccc(-c4nnn[nH]4)cc3)cc2)n(-c2ccc(Cl)c(Cl)c2)n1
Kd [1]: 2.2 µM

COc1ccc(-c2cc(C(=O)O)nn2-c2ccc(Cl)c(Cl)c2)cc1
Kd [1]: 79 µM

COc1ccc(CNC(=S)c2ccc(-c3cc(C(=O)O)nn3-c3ccc(Cl)c(Cl)c3)cc2)cc1
Kd [1]: 23 µM

COc1ccc(-c2cc(C(=O)O)nn2-c2cccc(Cl)c2)cc1
inhibition [2]: 35%
Kd [1]: > 500 µM

O=C(O)c1cc(-c2ccccc2)n(-c2ccc(Cl)c(Cl)c2)n1
Kd [1]: 123 µM

O=C(O)c1cc(-c2cccc(CNCc3ccc(-c4ccc(C(=O)O)o4)cc3)c2)n(-c2ccc(Cl)c(Cl)c2)n1
Kd [1]: 57 µM

O=C(O)c1cc(-c2ccc(O)cc2)n(-c2ccc(Cl)c(Cl)c2)n1
Kd [1]: 104 µM

O=C(O)c1ccc(-c2cc(C(=O)O)nn2-c2ccc(Cl)c(Cl)c2)cc1
Kd [1]: 59 µM

O=C(O)c1ccc(-c2ccc(C(=S)NCc3ccc(-c4ccnn4-c4ccc(Cl)c(Cl)c4)cc3)c(Cl)c2)o1
Kd [1]: 1.7 µM
Papp [3]: 14.5 ×10⁻⁶ cm/s

O=C(O)c1cc(-c2ccc(Cl)cc2)n(-c2ccc(Cl)c(Cl)c2)n1
Kd [4]: 54 µM
Kd [1]: 67 µM

Cc1cccc(-n2nc(C(=O)O)cc2-c2ccccc2)c1
Kd [4]: 580 µM
Kd [1]: > 500 µM

COc1ccc(-n2nc(C(=O)O)cc2-c2ccccc2)cc1
Kd [4]: 895 µM
inhibition [2]: 18%
Kd [1]: > 500 µM

COc1ccc(-c2cc(C(=O)O)nn2-c2ccc(C)cc2)cc1
inhibition [2]: 15%
Kd [1]: > 500 µM

O=C(O)c1cc(-c2ccc(CNC(=S)c3ccc(-c4nc(=O)o[nH]4)cc3)cc2)n(-c2ccc(Cl)c(Cl)c2)n1
Kd [1]: 9.3 µM

O=C(O)c1cc(-c2ccc(CNC(=S)c3ccc(-c4ccc(C(=O)O)o4)cc3)cc2)n(-c2ccc(Cl)c(Cl)c2)n1
Kd [1]: 0.55 µM

Cc1cccc(-c2cc(C(=O)O)nn2-c2ccc(Cl)c(Cl)c2)c1
Kd [1]: 90 µM

O=C(O)c1cc(-c2ccc(CN3CCc4cc(-c5ccc(C(=O)O)o5)ccc4C3=S)cc2)n(-c2ccc(Cl)c(Cl)c2)n1
Kd [1]: 0.54 µM

O=C(O)c1cc(Cc2ccc(O)cc2)n(-c2ccc(Cl)c(Cl)c2)n1
Kd [1]: > 500 µM

O=C(O)c1cc(-c2ccccc2)n(-c2ccccc2)n1
Kd [4]: 1150 µM

O=C(NCc1ccc(-c2ccc(C(=O)O)o2)cc1)c1cccc(-c2cc(C(=O)O)nn2-c2ccc(Cl)c(Cl)c2)c1
Kd [1]: 22 µM

COc1ccc(C(=O)NCc2ccc(-c3cc(C(=O)O)nn3-c3ccc(Cl)c(Cl)c3)cc2)cc1
Kd [1]: 72 µM

O=C(NCc1ccc(-c2cc(C(=O)O)nn2-c2ccc(Cl)c(Cl)c2)cc1)c1ccccc1
Kd [1]: 90 µM

N#Cc1ccc(-c2cc(C(=O)O)nn2-c2ccc(Cl)c(Cl)c2)cc1
Kd [1]: 310 µM

O=C(NCc1ccc(-c2cc(C(=O)O)nn2-c2ccc(Cl)c(Cl)c2)cc1)c1ccc(Br)cc1
Kd [1]: 35 µM

O=C(O)c1cc(-c2ccc(CNS(=O)(=O)c3ccccc3)cc2)n(-c2ccc(Cl)c(Cl)c2)n1
Kd [1]: 70 µM

Nc1ccc(-c2cc(C(=O)O)nn2-c2ccc(Cl)c(Cl)c2)cc1
Kd [1]: 227 µM

NCc1ccc(-c2cc(C(=O)O)nn2-c2ccc(Cl)c(Cl)c2)cc1
Kd [1]: > 500 µM

O=C(O)c1cc(-c2ccc(C(=S)NCc3ccc(-c4ccc(C(=O)O)o4)cc3)cc2)n(-c2ccc(Cl)c(Cl)c2)n1
Kd [1]: 1.5 µM

O=C(NCc1ccccc1)c1ccc(-c2cc(C(=O)O)nn2-c2ccc(Cl)c(Cl)c2)cc1
Kd [1]: 83 µM

O=C(O)c1cc(-c2ccco2)n(-c2ccc(Cl)c(Cl)c2)n1
Kd [1]: > 500 µM

COc1ccc(-c2cc(C(=O)O)nn2-c2cccc(C)c2)cc1
inhibition [2]: 20%
Kd [1]: > 500 µM

COc1ccc(CNC(=O)c2ccc(-c3cc(C(=O)O)nn3-c3ccc(Cl)c(Cl)c3)cc2)cc1
Kd [1]: 45 µM

O=C(NCc1ccc(-c2ccc(C(=O)O)o2)cc1Cl)c1ccc(-c2cc(C(=O)O)nn2-c2ccc(Cl)c(Cl)c2)cc1
Kd [1]: 9.4 µM

O=C(O)c1cccc(-c2cc(C(=O)O)nn2-c2ccc(Cl)c(Cl)c2)c1
Kd [1]: 129 µM

NS(=O)(=O)c1ccc(C(=S)NCc2ccc(-c3cc(C(=O)O)nn3-c3ccc(Cl)c(Cl)c3)cc2)cc1
Kd [1]: 34 µM

COc1ccc(-c2cc(C(=O)O)nn2-c2ccc(Br)cc2)cc1
inhibition [2]: 24%
Kd [1]: > 500 µM

O=C(O)c1cc(-c2ccc(C(=S)NCc3ccccc3)cc2)n(-c2ccc(Cl)c(Cl)c2)n1
Kd [1]: 18 µM
